Assay results taken from paper PMC4912218, “Targeted metabolomics of Gammarus pulex following controlled exposures to selected pharmaceuticals in water” (The Science of the Total Environment, 2016).
Values after ≈ are worked out from the molar mass of the structure shown.

Columns and labels:
in vivo = conditions: in vivo
Procedure: From these toxicity profiles the NOAEL and the LOAEL were determined. Exposure experiments were performed in Pyrex® beakers, each containing 200 mL of AFW at 15 °C and ten adult animals (> 5 mg wet weight, ww). Live/dead animals were counted after 24 h by gently prodding and observing movement of appendages. The pharmaceutical concentrations tested were in the range of 0.01 to 250 mg L^− 1. […] Concentrations where 100, 50 and 0% of the animals died were repeated in duplicate or triplicate.

[1] = design: method as in Drugbank; conditions: ref Drugbank; cited from earlier work
Thamnocephalus platyurus = conditions: ref Kim et al., 2009; cited from earlier work

Structure (SMILES) | LC50 at 24 h (in vivo) | Water solubility [1] | 24 h- LC50 T. platyurus (Thamnocephalus platyurus) | LC50 at 24 h (in vivo; Gammarus pulex)
CN(C)CCC=C1c2ccccc2CCc2ccccc21 [Amitriptyline] | 41.8 mg/L (≈ 150 µM) | – | – | –
CC(C)(Oc1ccc(CCNC(=O)c2ccc(Cl)cc2)cc1)C(=O)O [Bezafibrate] | > 1 mg/L | Insoluble | – | –
NC(=O)N1c2ccccc2C=Cc2ccccc21 [Carbamazepine] | > 112 mg/L | – | >100 mg/L | –
CC(C)(Oc1ccc(Cl)cc1)C(=O)O [Clofibric acid] | > 250 mg/L | 0.5825 mg/mL | – | –
O=C(O)Cc1ccccc1Nc1c(Cl)cccc1Cl [Diclofenac, Sodium diclofenac] | – | 50 mg/mL | – | –
CC(C(=O)O)c1ccc(-c2ccccc2)c(F)c1 (stereo not drawn) [Flurbiprofen] | – | – | – | > 8 mg/L
Cc1ccc(C)c(OCCCC(C)(C)C(=O)O)c1 [Gemfibrozil] | 9.84 mg/L (≈ 39.3 µM) | <1 mg/mL | – | –
CC(C)Cc1ccc(C(C)C(=O)O)cc1 (stereo not drawn) [Ibuprofen] | 44 mg/L (≈ 213 µM) | 100 mg/mL | – | –
CN(C)CCCN1c2ccccc2CCc2ccccc21 [Imipramine] | 3.85 mg/L (≈ 13.7 µM) | 50 mg/mL | – | –
